How the values were obtained:
[1] = system: Circulating Tumour Cells (CTCs) from a patient with renal cancer; test: Drug response score assay on CTCs (with CD45+ cells for immunotherapy) from blood, Example 7; assay type: cell-based, human; parameters: key to Drug response score, conc. 1 / Drug response score, conc. 2 / Drug response score, conc. 3 / Drug response score, conc. 4: normalized drug response metric per Gupta et al. 2020; details: for Drug response score, conc. 1: conc. 1: Pembr 20 μg/ml (CTCs + CD45+ cells), Docetax 0.02 μg/ml, Gemcit 2 μg/ml, Topo 5 μg/ml, Etop 1 μg/ml, Eribul 5 μg/ml (CTCs); for Drug response score, conc. 1 / Drug response score, conc. 2 / Drug response score, conc. 3 / Drug response score, conc. 4: t96h; for Drug response score, conc. 2: conc. 2: Pembr 40 μg/ml (CTCs + CD45+ cells), Docetax 0.2 μg/ml, Gemcit 10 μg/ml, Topo 10 μg/ml, Etop 4 μg/ml, Eribul 10 μg/ml (CTCs); for Drug response score, conc. 3: conc. 3: Pembr 100 μg/ml (CTCs + CD45+ cells), Docetax 2 μg/ml, Gemcit 20 μg/ml, Topo 50 μg/ml, Etop 20 μg/ml, Eribul 20 μg/ml (CTCs); for Drug response score, conc. 4: conc. 4: Pembr 160 μg/ml (CTCs + CD45+ cells), Docetax 10 μg/ml, Gemcit 40 μg/ml, Topo 100 μg/ml, Etop 100 μg/ml, Eribul 40 μg/ml (CTCs); for Drug sensitivity as calculated by the assay (interpretation of Drug Response Scores) / effectiveness on Circulating Tumour Cells under laboratory conditions: renal cancer CTCs; for Drug sensitivity as calculated by the assay (interpretation of Drug Response Scores): Table 23
Procedure: CD45^+ cells and circulating tumour cells (CTCs) were isolated from a blood sample provided by each subject.
CD45 separation was performed by adding human CD45 microbeads (50 μl/ml blood), incubating for 15 minutes at 4° C. and then processing using an AutoMACS machine. This separates the blood sample into CD45^+ and CD45^−cells in 2 separate falcons. The falcon tubes are then centrifuged at 1200 rpm for 5 minutes.
The supernatant was removed from the CD45^+falcon tube, and the cells resuspended in DMEM with 2 μl Cell Tox, 2 μl MT and 2 μl MT. 20 μl of the resuspended CD45^+ cells was then plated in each well which will contain an immunotherapy treatment.
The supernatant was removed from the CD45^−falcon tube, and the CD45^−cells contacted with 100 μl of FcR block and 100 μl of CD326 (EpCAM) MicroBeads, followed by incubation at […] 4° C. for 30 minutes. The CD45^−cells were then processed using an AutoMACS machine to separate the EpCAM positive and negative cells into 2 separate falcon tubes. The EpCAM-cells were discarded. The supernatant was removed from the EpCAM^+ cells, and the cells resuspended in DMEM with 2 μl Cell Tox, 2 μl MT and 2 μl MT. 20 μl of the resuspended pellet was then added to all sample wells excluding a blank. After all wells are added to, a cell count was conducted on the […] to determine the number of circulating tumour cells (CTCs).
(§1) The different cell types were each divided equally into populations, depending on the number of drugs/concentrations to be tested and plated on a cell-culture plate pre-coated with a scaffold of polycaprolactone (PCL) electrospun fibres and incubated at 37° C., 5% CO2, for 5 to (typically 10) minutes to facilitate cell attachment. After attachment, an initial imaging step was carried out using the RealTime-Glo™ MT assay from Promega (Catalogue No. G9711)) and the CellTox™ Green Cytotoxicity Assay (Promega, Catalogue No. G8741), carried out according to manufacturer's instructions. Following this initial imagining, the immunotherapeutic and/or chemotherapeutic agents were added to the cell populations as indicated below. After 10 minutes, the imagining step was repeated. The cell populations were then incubated at 37° C., 5% CO2 for 48 hours. The imaging step was then repeated. The cell populations were then re-dosed with the same immunotherapeutic and/or chemotherapeutic agents as indicated below, and incubated at 37° C., 5% CO2 for a further 48 hours. After this second 48 hour incubation, the imagining step was repeated for a final time.
(§2) At the end of this culture period, dose response scores were calculated using a normalized drug response metric as described in Gupta et al. (Communications Biology volume 3, Article number: 42 (2020), https://doi.org/10.1038/s42003-020-0765-z). The start readout for a given immunotherapeutic or chemotherapeutic agent at a given concentration was the to readout for said immunotherapeutic or chemotherapeutic agent at a specified concentration. The end readout for a given immunotherapeutic or chemotherapeutic agent at a given concentration was the final timepoint reading (t96h) for said immunotherapeutic or chemotherapeutic agent at a specified concentration.
The positive control start readout for a given drug/concentration was the to readout for the corresponding drug at a specified concentration. The positive control end readout for the corresponding drug at a specified concentration was the final timepoint reading (t96h) for the corresponding blank well.
The negative control start and end readouts for a given immunotherapeutic or chemotherapeutic agent at a given concentration were the to and final timepoint reading (t96h) respectively for blank cell or blank immuno cell well respectively.
The sensitivity or resistance of a subject's cancer to a given immunotherapeutic or chemotherapeutic agent was determined based on the calculated drug response score as shown in Table 2. […]

[2] = system: Cancer Cells from tissue sample (CSCs, tumour marker+ cells) of a patient with GI cancer (Cholangio Carcinoma, stage 4); test: Drug response score assay on tissue sample, Example 9; assay type: cell-based, human; details: for effectiveness on Cancer Cells from tissue sample under laboratory conditions: GI cancer (Cholangio Carcinoma) tissue sample; for Drug sensitivity as calculated by the assay, Tissue: interpretation based on Drug Response Scores; for Drug sensitivity as calculated by the assay, Tissue / Drug response score, conc. 1 / Drug response score, conc. 2 / Drug response score, conc. 3 / Drug response score, conc. 4: tissue sample; for Drug response score, conc. 1: conc. 1 per Table 27B: Pem 20, Niv 20, Atez 100, Pacli 0.05, Irino 5, Beva 1 μg/ml, Len 50, 5-FU 250 ng/ml; for Drug response score, conc. 2: conc. 2 per Table 27B: Pem 40, Niv 40, Atez 200, Pacli 0.1, Irino 10, Beva 2 μg/ml, Len 100, 5-FU 500 ng/ml; for Drug response score, conc. 3: conc. 3 per Table 27B: Pem 100, Niv 80, Atez 400, Pacli 0.2, Irino 25, Beva 4 μg/ml, Len 200, 5-FU 1000 ng/ml; for Drug response score, conc. 4: conc. 4 per Table 27B: Pem 160, Niv 160, Atez 800, Pacli 1, Irino 50, Beva 8 μg/ml, Len 400, 5-FU 2000 ng/ml
Procedure: Where a tissue sample was provided by each subject, cancer stem cells (CSCs, CD133^+), were isolated from said sample. Tumour marker cells were further isolated from each tissue sample. The remaining cells were designated tumour marker^+ cells.
First, disaggregation of the tissue samples was carried out. Disaggregation was dependent on the size of the tissue sample and the method of retrieval: • EBUS (Endobronchial Ultrasound Scan and Biopsy)—very small fragments of tissue in solution-spun at 1200 rpm for 5 minutes to collect tissue pellet • Bronchoscopy-larger fragments with larger amount of blood vessels • Broncho-lavage-similar to EBUS, spun at 1200 rpm for 5 minutes to collet tissue pellet
Once a pellet of tissue obtained, DMEM added to the tissue pellet and the material forced through a […] Smart strainer. Once a cell suspension was achieved, this was spun at 1200 rpm for 5 minutes and the supernatant removed. The cells were then resuspended to a volume of 60 μl.
20 μl of FcR block and 20 μl of CD133 microbeads were added to the resuspended cells, followed by incubation for 15 minutes at 4° C. The cells were then processed using an AutoMACS machine. This separates the […] into CD133^+ and CD133^− cells in 2 separate falcons. The falcon tubes are then centrifuged at 1200 rpm for 5 minutes.
The supernatant was removed from the CD133+falcon tube, and the cells resuspended in DMEM with 2 μl Cell Tox, 2 μl MT and 2 μl MT. 20 μl of the resuspended […] was then plated in each well which will contain an immunotherapy treatment.
The supernatant was removed from the CD133^− falcon tube, and the CD133^− cells contacted with 40 μl of a tumour separation microbeads cocktail containing microbeads bound to anti-CD31, anti-CD45, anti-Glycophorin-A (Gly-A) and an anti-fibroblast antibody.
This cocktail is used to separate out tumour marker cells using MACS, by separating out CD31^+, CD45^+ and Gly-A^+ cells. In addition, anti-fibroblast antibody-labelled beads are also used. The cocktail is added to the CD133^− falcon tube, followed by incubation for 15 minutes at 4° C. MACS is carried out using an AutoMACS machine. This cells which are not bound by the CD31, CD45, Gly-A and anti-fibroblast antibody beads are the tumour marker^+ cells.
as §1
as §2, with “The end readout for a given immunotherapeutic or chemotherapeutic agent at a given concentration was the final timepoint reading (t96h) for said immunotherapeutic or chemotherapeutic agent at a specified concentration.” left out

CC(=O)O[C@@]12CO[C@@H]1C[C@H](O)[C@@]1(C)C(=O)[C@H](O)C3=C(C)[C@@H](OC(=O)[C@H](O)[C@@H](NC(=O)OC(C)(C)C)c4ccccc4)C[C@@](O)([C@@H](OC(=O)c4ccccc4)[C@H]21)C3(C)C [Docetaxel]
Drug response score, conc. 1 [1]: 0.0585
Drug response score, conc. 2 [1]: −0.1811
Drug response score, conc. 3 [1]: 0.0514
Drug response score, conc. 4 [1]: −0.1468
Drug sensitivity as calculated by the assay (interpretation of Drug Response Scores) [1]: Sensitive (S+)

COc1cc([C@@H]2c3cc4c(cc3[C@@H](O[C@@H]3O[C@@H]5CO[C@@H](C)O[C@H]5[C@H](O)[C@H]3O)[C@H]3COC(=O)[C@H]23)OCO4)cc(OC)c1O [Etoposide]
Drug response score, conc. 1 [1]: −0.2179
Drug response score, conc. 2 [1]: −0.1141
Drug response score, conc. 3 [1]: −0.1357
Drug response score, conc. 4 [1]: −0.0050
effectiveness on Circulating Tumour Cells under laboratory conditions [1]: Sensitive S++
Drug sensitivity as calculated by the assay (interpretation of Drug Response Scores) [1]: Sensitive (S++)

COc1cc2nccc(Oc3ccc(NC(=O)NC4CC4)c(Cl)c3)c2cc1C(N)=O [Lenvatinib]
effectiveness on Cancer Cells from tissue sample under laboratory conditions [2]: S+
Drug sensitivity as calculated by the assay, Tissue [2]: S+
Drug response score, conc. 1 [2]: 0.9082
Drug response score, conc. 2 [2]: 0.9132
Drug response score, conc. 3 [2]: 0.8739
Drug response score, conc. 4 [2]: 0.9434

CC(=O)O[C@H]1C(=O)[C@@]2(C)[C@H]([C@H](OC(=O)c3ccccc3)[C@]3(O)C[C@H](OC(=O)[C@H](O)[C@@H](NC(=O)c4ccccc4)c4ccccc4)C(C)=C1C3(C)C)[C@]1(OC(C)=O)CO[C@@H]1C[C@@H]2O [Paclitaxel]
Drug response score, conc. 1 [2]: 0.9365
Drug response score, conc. 2 [2]: 0.9526
Drug response score, conc. 3 [2]: 0.9072
Drug response score, conc. 4 [2]: 0.9683

Nivolumab
effectiveness on Cancer Cells from tissue sample under laboratory conditions [2]: S+
Drug sensitivity as calculated by the assay, Tissue [2]: S+
Drug response score, conc. 1 [2]: 0.9424
Drug response score, conc. 2 [2]: 0.9636
Drug response score, conc. 3 [2]: 0.9018
Drug response score, conc. 4 [2]: 0.6833

Pembrolizumab
Drug response score, conc. 1 [1]: −0.0194
Drug response score, conc. 2 [1]: 0.1577
Drug response score, conc. 3 [1]: 0.0468
Drug response score, conc. 4 [1]: −0.0364
effectiveness on Circulating Tumour Cells under laboratory conditions [1]: Sensitive S+
Drug sensitivity as calculated by the assay (interpretation of Drug Response Scores) [1]: Sensitive (S+)
effectiveness on Cancer Cells from tissue sample under laboratory conditions [2]: S+
Drug sensitivity as calculated by the assay, Tissue [2]: S+
Drug response score, conc. 1 [2]: 0.9764
Drug response score, conc. 2 [2]: 0.9717
Drug response score, conc. 3 [2]: 0.9672
Drug response score, conc. 4 [2]: 0.8354
